Laboratory results: patent US20150212064A1, “DEGRANULATION INDICATOR AND METHODS OF USE THEREOF” (priority 2011, published 2015)
Entries after “also recorded” stand apart in the source; their conditions may differ.

Experiments:
[1] = test system: NK-92 cells expressing pHluorin-LAMP1; experiment: Flow cytometry of green fluorescence of NK-92 cells expressing pHluorin-LAMP1; format: cell-based, human; conditions: for pHluorin fluorescence: PMA 100 ng/mL and Ionomycin 1 μg/mL together for 30 minutes
Experimental: Flow cytometry was performed to verify pHluorin-LAMP1 expression. Cells were untreated or treated with phorbol myristate acetate (PMA, 100 ng/mL,Sigma) and Ionomycin (1 μg/mL, Sigma) for 30 minutes or Concanamycin A (CMA, 100 nM, Sigma) for 90 minutes and samples were run on a Becton Dickinson FACSCalibur™.

[2] = test system: resting human NK cells; conditions: cited from earlier work
[3] = test system: NK92 cells expressing pHlourin-LAMP1; experiment: Live cell TIRFm of lytic granule motility and persistence in activated pHluorin-LAMP1 NK92 cells; format: cell-based, human; conditions: for pre-degranulation motility of granules: 10 μM LatA added after 10 minutes, vs DMSO control; for number / accumulation of granules at the TIRF plane of the activated NK IS: LatA-treated cells, not quantified
Experimental: For NK92 lytic granule motility studies, pHluorin-LAMP1 NK92 cells were suspended in dye free RPMI 10% FBS media at a concentration of 7.5×10^5 to 10^6 cells/ml and incubated with 100 nM LysoTracker® Red DND-99 (Invitrogen) at 37° C. for 30 minutes, washed, and resuspended in media. ΔT culture dishes (Bioptechs) were coated with […] anti-NKp30 and -CD18, incubated at 37° C. for 1 hour or 4 degrees overnight, washed with PBS, and pre-warmed with dye free RPMI 10% FBS media. NK92 cells were plated on ΔT culture dishes immediately prior to imaging, and temperature was maintained at 37° C. throughout the experiment using a ΔT culture dish heater and lid (Bioptechs).
Cells were imaged in a single z-plane 10-15 minutes after addition to imaging chambers through an APO N TIRFm, oil immersion 60×1.49 NA objective using an Olympus IX-81 spinning disk confocal microscope with a rear-mounted TIRF illuminator and a Hamamatsu EM CCD C9100 camera. Excitation was by 480 nm (Spectra-Physics) and 561 nm (Cobalt) diode lasers through a LMM5 laser combiner unit (Spectral Applied Research). Cell image sequences were captured in TIRF mode at the interface between the cell and the glass over 60-80 minutes at 6 frames per minute using Volocity® software (PerkinElmer). Where indicated, cells were incubated with 10 μM LatA (Sigma) following 10 minutes of pre-incubation in the imaging chamber.
For TIRFm analysis, image sequences were analyzed using Volocity® software (PerkinElmer). LysoTracker® Red and pHluorin positive events were identified and cropped in Volocity®. Object tracks were generated over time using the “track objects manually” function and the rectangular selection tool for each event; the track length, track velocity, displacement, and displacement rate of each lytic granule were measured for both LysoTracker® Red time points and pHluorin time points, and comparatively graphed on GraphPad Prism® Version 5.0 (GraphPad software). Overlays of lytic granule tracks were generated by the plotting of X and Y coordinate values from Volocity with GraphPad Prism® for both Lysotracker® Red and pHluorin. To measure the time persistence of LysoTracker® Red lytic granules within the TIRF field, the time of LysoTracker® Red emergence on the TIRF field was subtracted from the time of pHlourin appearance or LysoTracker® Red disappearance and multiplied by 60 to obtain time persistence in seconds.
For LatA experiments, granules with both Lysotracker Red and pHluorin traces were identified and cropped in Volocity®. Objects were identified using a threshold of 3 SD above the mean field fluorescence for each timepoint to account for photobleaching using the “Find Objects Using SD Intensity” function. Objects smaller than 0.032 μm^2 were excluded from further analysis. Tracks were then generated using the “Track Objects” feature using the “Shortest Path” tracking model, and the track length, track velocity, displacement, displacement rate, and time span of each lytic granule tabulated and graphed using GraphPad Prism® software Version 5.0.
The sum fluorescent intensity and area of each granule was also recorded at each timepoint. Using the initial appearance of pHluorin-LAMP1 as time zero, the average sum fluorescent intensity post-degranulation was calculated and graphed for lytic granules treated with DMSO vehicle control versus those treated with LatA. For area measurements, the borders of individual granules were defined as those above 3 SD.

[4] = test system: NK cell; conditions: cited from earlier work
[5] = test system: NK cell cortical actin filaments; conditions: cited from earlier work
[6] = test system: PC12 chromaffin cells; conditions: cited from earlier work
[7] = test system: neutrophils; conditions: cited from earlier work
[8] = test system: NK-92 cells; experiment: Degranulation assay (Granzyme A activity, BLT esterase) of NK-92 cells activated by immobilized antibody to NKp30 and CD18; format: cell-based, human; conditions: thapsigargin 1 μM, positive control
Experimental: Immulon 4HBX 96 well flat bottom plates (Thermo) were coated with murine IgG (BD), anti-human NKp30, anti-human CD18, or both anti-NKp30 and anti-CD18 at 5 μg/mL in PBS overnight at 4° C. Plates were washed twice with PBS and blocked for 1 hr at room temperature with R10 media. One×10^5 cells were added to wells and plates were spun at 1000 rpm for two minutes before incubation at 37° C. For the timecourse degranulation assay, supernatants from spontaneous and activated wells were harvested at indicated times. For inhibitor treatments, media containing inhibitor or vehicle (DMSO) was added at indicated times. Inhibitors used were jasplakinolide (1 μM, Calbiochem), latrunculin A (10 μM, Sigma), cytochalasin D (10 μM, Sigma), and thapsigargin (1 μM, Calbiochem). Supernatatants were harvested after 60 minutes. For total release, cells were lysed in 0.5% Nonidet P40 (Accurate Chemical and Scientific). […] Samples were incubated for 30 minutes at 37° C. and absorbance was measured immediately at 405 nm. Percent total release was measured by subtracting the spontaneous release value from activated release values (A-S) and the total release value (T-S), and then dividing (A-S) by (T-S).

[9] = 10 μM LatA, 12-18 tracks, normalized to DMSO control

## C[C@H](CCC(=O)O)C[C@H](C)C[C@H](C)C(=O)/C=C(\O)[C@H](C)C[C@H](C)C/C=C/[C@@H](C)[C@@H](O)[C@@H](C)[C@@H](O)C[C@@H]1CC[C@@](C)([C@H]2CC[C@@](C)([C@@H](C)O)O2)O1 [ionomycin, Ionomycin]
[1]
  pHluorin fluorescence: rapid increase in pHluorin fluorescence

## COC(=O)Nc1nc2ccc(C(=O)c3cccs3)cc2[nH]1 [nocodazole]
[2]
  movement of granules at the plasma membrane / cortex: arrests the movement of granules at the cortex

## C/C1=C/C(=O)O[C@@H]2C[C@@H](CC[C@H](C)/C=C\C=C\CC1)O[C@@](O)([C@@H]1CSC(=O)N1)C2 [LatA, latrunculin A]
[3]
  pre-degranulation motility of granules: intact; also recorded: did not significantly affect granule movement prior to degranulation
  number / accumulation of granules at the TIRF plane of the activated NK IS: no observable defect in the number of granules that reached the TIRF plane
[3]; listed as Latrunculin A
  pre-degranulation motility of granules: did not affect pre-exocytosis movement
  number / accumulation of granules at the TIRF plane of the activated NK IS: gross accumulation of granules was not observed
[3]; [9]
  lytic granule total displacement: no significant differences
  lytic granule track length: no significant differences
  lytic granule velocity: no significant differences
[3]; 10 μM LatA, control normalized to 1.0±0.56, p=0.0441
  timespan of green fluorescence (persistence following exocytosis): 0.59±0.442
[3]; 10 μM LatA, control normalized to 1.0±0.87
  lifetime of red fluorescence (timespan pre-degranulation): 1.1±0.61 AU
[3]; 10 μM LatA, control treated cells 28.8 minutes
  median time for 50% survival of granules following degranulation (Kaplan-Meier): 13.7 min
[3]; LatA vs DMSO, over 40 minutes p<0.0001, truncated at 20 minutes p=0.4438
  area of granules post-degranulation: slightly greater area
[3]; LatA vs DMSO, up to forty minutes post-degranulation, p<0.0001 Mann Whitney U test
  sum fluorescent intensity (MFI*area) of granules post-degranulation: significantly greater sum fluorescent intensity (MFI*area) of granules from DMSO treated cells
[4]
  cytotoxic function: abrogates cytotoxic function
[5]
  depolymerization of cortical actin: rapidly depolymerizes; also recorded: completely depolymerizes cortical actin
[6]
  expulsion of granule contents: more rapid expulsion of granule contents

## C=C1[C@@H](C)[C@H]2[C@H](Cc3ccccc3)NC(=O)[C@]23[C@H](OC(C)=O)/C=C/[C@@](C)(O)C(=O)[C@@H](C)C/C=C/[C@H]3[C@@H]1O [cytochalasin D]
[7]
  accumulation of granules at the exocytic zone: seems to promote the accumulation of granules
  movement of granules in the TIRF plane at the membrane: does not prevent movement of granules

## C/C=C(/C)C(=O)O[C@H]1C(C)=C2[C@H]([C@@H]1OC(=O)CCCCCCC)[C@@](C)(OC(C)=O)C[C@H](OC(=O)CCC)[C@@]1(O)[C@H]2OC(=O)[C@@]1(C)O [Thapsigargin, thapsigargin]
[8]
  effect on degranulation: positive effect on degranulation

## C/C=C/[C@H]1O[C@@](O)([C@@H](C)[C@H](O)[C@H](C)[C@H]2OC(=O)/C(OC)=C/C(C)=C/[C@@H](C)[C@@H](O)[C@@H](CC)[C@@H](O)[C@H](C)C/C(C)=C/C=C/[C@@H]2OC)C[C@@H](O[C@H]2C[C@@H](O)[C@H](OC(N)=O)[C@@H](C)O2)[C@@H]1C [concanamycin A, Concanamycin A]
[1]; Concanamycin A 100 nM for 90 minutes
  green fluorescence measured by flow cytometry: robust increase in green fluorescence

## C/C1=C/C(=O)O[C@@H]2C[C@@H](CC[C@H](C)/C=C\CC1)O[C@@](O)([C@@H]1CSC(=O)N1)C2 [Latrunculin B]
[2]
  movement of granules at the plasma membrane / cortex: arrests those granules constitutively found at the plasma membrane
  numbers of granules at the plasma membrane: does not result in increased numbers of granules

## CCCCCCCCCCCCCC(=O)O[C@@H]1[C@@H](C)[C@@]2(O)[C@@H](C=C(CO)C[C@]3(O)C(=O)C(C)=C[C@@H]23)[C@@H]2C(C)(C)[C@]12OC(C)=O [PMA, phorbol myristate acetate]
[1]
  pHluorin fluorescence: rapid increase in pHluorin fluorescence
